{"source": "patent US20020003114A1", "about": "“Partially halogenated hydantoins in papermaking applications” (Lonza Inc.;, priority 2000, published 2002)", "key": {"[1]": {"tested_on": "organisms native to the white water", "test": "Bactericidal efficacy of slimicides in paper mill white water", "type": "cell-based", "settings": "Table 8", "experimental": "White water was obtained from a Northeastern paperboard mill. The pH of the white water was about 6.5-7.5. The consistency of the white water was typically 0.1-0.2%. The furnish pulp was approximately 50% mixed, 15% chip, 15% corrugated, and 15% newspaper. The white water contained the sizing alkyl ketene dimer (AKD). The test organisms were those native to the white water.\nThe slimicide was added at a concentration of from about 15 to about 20 ppm (expressed as Cl2) to the white water. The white water was then incubated for 3 hours at 37° C. The test conditions were based on ASTM E 600-91 and ASTM E 1839-96. Bacterial counts were performed using tryptone glucose extract agar by known pour plate techniques. DIFCO D/E Neutralizing Broth was used as the first serial dilution tube for biocide neutralization.\nThe bactericidal efficacy of each slimicide in Table 6 was determined according to the procedure described in Example 2, except the incubation time was 30 minutes instead of 3 hours and the initial concentration of slimicide was about 20 ppm (expressed as Cl2).\nThe bactericidal efficacy rate of each slimicide was determined by dividing the observed log reduction in the bacterial count by the 30 minute contact time. The bactericidal efficacy rate at 2 ppm of slimicide (expressed as C2) was extrapolated from the results for 20 ppm of slimicide (expressed as Cl2) by assuming a first order behavior. […]\nThe bactericidal efficacy and bacterial efficacy rate of each slimicide in Table 8 below was determined according to the procedure described in Example 5.\nThe bactericidal efficacy of each slimicide in Table 10 was determined according to the procedure described in Example 2, except the initial concentration of slimicide was about 10 ppm (expressed as Cl2).\nThe microbiocidal efficacy rate of each slimicide was determined by dividing the observed log reduction in the bacterial count by the 180 minute contact time. The efficacy rate at 2 ppm of slimicide (expressed as Cl2) was extrapolated from the results for 10 ppm of slimicide (expressed as Cl2) by assuming a first order behavior. […]"}, "[2]": {"test": "Oxidant (halogen) loss rate with performance additive PAE", "type": "physicochemical", "experimental": "(§1) 125 mL solutions containing 2.0 ppm (expressed total halogen as Cl2) of Cl0.9-5,5-dimethyl hydantoin, Dantochlor®, sodium hypochlorite, Dantobrom®, or sodium hypobromite and a performance additive described in Table 4 were prepared by mixing the appropriate amounts of the ingredients in tap water at a temperature of about 37° C. and a pH of about 8.\n(§2) The degeneration of the performance additives tested was determined by measuring the residual oxidant (halogen) concentrations of the solutions over time as follows. The tests were performed in a water bath maintained at 37° C. and an orbital shaker in order to keep the performance additives dispersed in the solutions. Aliquots were taken at regular intervals over a 30 minute period and measured for residual slimicide concentrations using the standard diethyl-p-phenylene diamine (DPD) methodology described in Palin, A. T., Chemistry and Control of Modem Chlorination, La Motte Chemical (1973). The oxidant (halogen) loss rates were determined from first order linear regression plots of the residual oxidant (halogen) concentrations over time.\n(§3) The ratio of bactericidal efficacy to oxidant loss rate was calculated for the slimicides and performance additives in Table 7 based on the results in Tables 5 and 6 above. […]"}, "[3]": {"test": "Oxidant (halogen) loss rate with performance additive A-PAM", "type": "physicochemical", "experimental": "as §1, §2, §3"}, "[4]": {"test": "Oxidant (halogen) loss rate with performance additive C-Starch", "type": "physicochemical", "experimental": "as §1, §2, §3"}, "[5]": {"test": "Oxidant (halogen) loss rate with performance additive C-PAM", "type": "physicochemical", "experimental": "as §1, §2, §3"}, "[6]": {"test": "Oxidant (halogen) loss rate with performance additive AKD", "type": "physicochemical", "experimental": "as §1, §2, §3"}, "[7]": {"settings": "Table 9, extrapolated rate at 2 ppm (Table 8) divided by oxidant loss rate (Table 5)"}}}
{"smiles": "[Na+].[O-]Br", "note": "[NaOBr, Sodium hypobromite]", "values": [{"measurement": "Bactericidal Efficacy Rate (log cfu/ml reduction per minute)", "setting": "[1]; 20 ppm slimicide, log reduction divided by 30 minute contact time", "result": "0.002 log cfu/ml reduction per minute"}, {"measurement": "Extrapolated Bactericidal Efficacy Rate (at 2 ppm of Slimicide) (log cfu/ml reduction per minute)", "setting": "[1]; extrapolated from 20 ppm to 2 ppm assuming first order (one-tenth)", "result": "0.0002 log cfu/ml reduction per minute"}, {"measurement": "Bactericidal Efficacy (log cfu/ml reduction in 30 minutes)", "setting": "[1]; procedure of Example 5, slimicide about 20 ppm (as Cl2), white water, 30 minutes", "result": 0.07, "unit": "log cfu/ml reduction"}, {"measurement": "Ratio of Bactericidal Efficacy Rate to Oxidant Loss Rate, PAE", "setting": "[2]; [7]", "result": "0.002 log cfu/ml reduction per ppm"}, {"measurement": "Oxidant (Halogen) Loss Rate, PAE", "setting": "[2]; slimicide 2.0 ppm (as Cl2), PAE 100 ppm active, tap water, 37° C., pH about 8, 30 minutes", "result": 0.103, "unit": "ppm/min"}, {"measurement": "Ratio of Bactericidal Efficacy Rate to Oxidant Loss Rate, A-PAM", "setting": "[3]; [7]", "result": "0.007 log cfu/ml reduction per ppm"}, {"measurement": "Oxidant (Halogen) Loss Rate, A-PAM", "setting": "[3]; slimicide 2.0 ppm (as Cl2), A-PAM 50 ppm active, tap water, 37° C., pH about 8, 30 minutes", "result": 0.029, "unit": "ppm/min"}, {"measurement": "Ratio of Bactericidal Efficacy Rate to Oxidant Loss Rate, C-Starch", "setting": "[4]; [7]", "result": "0.02 log cfu/ml reduction per ppm"}, {"measurement": "Oxidant (Halogen) Loss Rate, C-Starch", "setting": "[4]; slimicide 2.0 ppm (as Cl2), C-Starch 100 ppm active, tap water, 37° C., pH about 8, 30 minutes", "result": 0.010, "unit": "ppm/min"}, {"measurement": "Ratio of Bactericidal Efficacy Rate to Oxidant Loss Rate, C-PAM", "setting": "[5]; [7]", "result": "0.008 log cfu/ml reduction per ppm"}, {"measurement": "Oxidant (Halogen) Loss Rate, C-PAM", "setting": "[5]; slimicide 2.0 ppm (as Cl2), C-PAM 4 ppm active, tap water, 37° C., pH about 8, 30 minutes", "result": 0.025, "unit": "ppm/min"}, {"measurement": "Ratio of Bactericidal Efficacy Rate to Oxidant Loss Rate, AKD", "setting": "[6]; [7]", "result": "0.07 log cfu/ml reduction per ppm"}, {"measurement": "Oxidant (Halogen) Loss Rate, AKD", "setting": "[6]; slimicide 2.0 ppm (as Cl2), AKD 10 ppm active, tap water, 37° C., pH about 8, 30 minutes", "result": 0.003, "unit": "ppm/min"}]}
